Data published in paper PMC6225228, “Design, Synthesis and Evaluation of N-pyrazinylbenzamides as Potential Antimycobacterial Agents” (Molecules : A Journal of Synthetic Chemistry and Natural …, 2018).
In brackets after ≈: the same amount, converted by molar mass. Like-named read-outs stand apart in the source and are kept apart here.

Key:
[1] = tested on: Lichtheimia corymbifera 272; experiment: Antifungal microdilution broth, LC; format: cell-based; conditions: read-out: MIC LC
[2] = tested on: Candida albicans ATCC 44859; experiment: Antifungal microdilution broth, CA; format: cell-based; conditions: Candida albicans, read-out: MIC CA
Candida krusei E28 = experiment: Antifungal microdilution broth, CK; format: cell-based; conditions: Pichia kudriavzevii, read-out: MIC CK
Candida glabrata 20/I = experiment: Antifungal microdilution broth, CG; format: cell-based; conditions: Nakaseomyces glabratus, 20/I, read-out: MIC CG
Trichosporon asahii 1188 = experiment: Antifungal microdilution broth, TA; format: cell-based; conditions: read-out: MIC TA
Candida tropicalis 156 = experiment: Antifungal microdilution broth, CT; format: cell-based; conditions: read-out: MIC CT
[3] = tested on: Trichophyton interdigitale 445; experiment: Antifungal microdilution broth, TI; format: cell-based; conditions: read-out: MIC TI
[4] = tested on: Aspergillus fumigatus 231; experiment: Antifungal microdilution broth, AF; format: cell-based; conditions: read-out: MIC AF
[5] = tested on: Pseudomonas aeruginosa CCM 1961; experiment: Antibacterial microdilution broth, PA; format: cell-based; conditions: Pseudomonas aeruginosa, read-out: MIC PA
[6] = tested on: Escherichia coli CCM 4517; experiment: Antibacterial microdilution broth, EC; format: cell-based; conditions: Escherichia coli, read-out: MIC EC
[7] = tested on: Staphylococcus epidermidis H 6966/08; experiment: Antibacterial microdilution broth, SE; format: cell-based; conditions: Staphylococcus epidermidis, read-out: MIC SE
[8] = tested on: Staphylococcus aureus H 5996/08 methicillin resistant; experiment: microbe, parasite or virus in culture; format: cell-based; conditions: Staphylococcus aureus, MRSA, read-out: MIC MRSA
[9] = tested on: Staphylococcus aureus CCM 4516/08; experiment: Antibacterial microdilution broth, SA; format: cell-based; conditions: Staphylococcus aureus, read-out: MIC SA
[10] = tested on: Enterococcus sp. J 14365/08; experiment: Antibacterial microdilution broth, EF; format: cell-based; conditions: Enterococcus, read-out: MIC EF
[11] = tested on: M. kansasii CNCTC My 235/80 (ATCC 12478); experiment: Antimycobacterial microdilution MABA, M. kansasii; format: cell-based, Mycobacterium kansasii; conditions: Middlebrook 7H9 with OADC, pH 6.6, MABA
[12] = tested on: Mycobacterium tuberculosis H37Rv CNCTC My 331/88 (ATCC 27294); experiment: Antimycobacterial microdilution MABA, M. tuberculosis; format: cell-based; conditions: Middlebrook 7H9 with OADC growth supplement, pH = 6.6, MABA
[13] = tested on: Mycobacterium smegmatis CCM 4622 (ATCC 607); experiment: Antimycobacterial microdilution, M. smegmatis; format: cell-based; conditions: Middlebrook 7H9 with OADC, resazurin
[14] = tested on: M. avium ssp. avium CNCTC My 80/72 (ATCC 15769); experiment: Antimycobacterial microdilution MABA, M. avium; format: cell-based, Mycobacterium avium; conditions: Middlebrook 7H9 with OADC, pH 6.6, MABA
[15] = Lichtheimia corymbifera, 272, 24 h
[16] = Lichtheimia corymbifera, 272, 48 h
[17] = Trichosporon asahii, 1188, 24 h
[18] = Trichosporon asahii, 1188, 48 h
[19] = Trichophyton interdigitale, 445, 72 h
[20] = Trichophyton interdigitale, 445, 120 h
[21] = Aspergillus fumigatus, 231, 24 h
[22] = Aspergillus fumigatus, 231, 48 h

Structure (SMILES) | MIC [1, 15] | MIC [1, 16] | MIC ([2]; ATCC44859, 24 h) | MIC ([2]; ATCC44859, 48 h) | MIC (Candida krusei E28; E28, 24 h) | MIC (Candida krusei E28; E28, 48 h) | MIC (Candida glabrata 20/I; 24 h) | MIC (Candida glabrata 20/I; 48 h) | MIC (Trichosporon asahii 1188; [17]) | MIC (Trichosporon asahii 1188; [18]) | MIC (Candida tropicalis 156; Candida tropicalis, 156, 24 h) | MIC (Candida tropicalis 156; Candida tropicalis, 156, 48 h) | MIC [3, 19] | MIC [3, 20] | MIC [4, 21] | MIC [4, 22] | MIC ([5]; CCM1961, 72 h) | MIC ([5]; CCM1961, 120 h) | MIC ([6]; CCM4517, 24 h) | MIC ([6]; CCM4517, 48 h) | other results
C[C@@H]1[C@H](O)[C@@H](C)/C=C/C=C/C=C/C=C/C=C/C=C/C=C/[C@H](O[C@@H]2O[C@H](C)[C@@H](O)[C@H](N)[C@@H]2O)C[C@@H]2O[C@](O)(C[C@@H](O)C[C@@H](O)[C@H](O)CC[C@@H](O)C[C@@H](O)CC(=O)O[C@H]1C)C[C@H](O)[C@H]2C(=O)O [AMPB, amphotericin B, reference compound] | 7.81 µM (≈ 7.22 µg/mL) | 7.81 µM (≈ 7.22 µg/mL) | 0.12 µM (≈ 0.111 µg/mL) | 0.49 µM (≈ 0.453 µg/mL) | 1.95 µM (≈ 1.8 µg/mL) | 1.95 µM (≈ 1.8 µg/mL) | 0.98 µM (≈ 0.906 µg/mL) | 1.95 µM (≈ 1.8 µg/mL) | 0.49 µM (≈ 0.453 µg/mL) | 0.98 µM (≈ 0.906 µg/mL) | 1.95 µM (≈ 1.8 µg/mL) | 1.95 µM (≈ 1.8 µg/mL) | 1.95 µM (≈ 1.8 µg/mL) | 1.95 µM (≈ 1.8 µg/mL) | 1.95 µM (≈ 1.8 µg/mL) | 1.95 µM (≈ 1.8 µg/mL) |  |  |  |  | 
OC(Cn1cncn1)(Cn1cncn1)c1ccc(F)cc1F [FLU, fluconazole, reference compound] | > 500 µM | > 500 µM | 0.24 µM (≈ 0.0735 µg/mL) | 0.24 µM (≈ 0.0735 µg/mL) | 125 µM (≈ 38.3 µg/mL) | 250 µM (≈ 76.6 µg/mL) | 31.2 µM (≈ 9.57 µg/mL) | 250 µM (≈ 76.6 µg/mL) | 250 µM (≈ 76.6 µg/mL) | 500 µM (≈ 153 µg/mL) | > 500 µM | > 500 µM | 7.81 µM (≈ 2.39 µg/mL) | 125 µM (≈ 38.3 µg/mL) | > 500 µM | > 500 µM |  |  |  |  | 
CC1(C)S[C@@H]2[C@H](NC(=O)Cc3ccccc3)C(=O)N2[C@H]1C(=O)O [Pen, benzylpenicillin, reference compound] |  |  |  |  |  |  |  |  |  |  |  |  |  |  |  |  | > 500 µM | > 500 µM | 125 µM (≈ 41.8 µg/mL) | 125 µM (≈ 41.8 µg/mL) | MIC ([7]; H6966/08, 24 h): 31.2 µM (≈ 10.4 µg/mL); MIC ([7]; H6966/08, 48 h): 125 µM (≈ 41.8 µg/mL); MIC ([8]; 24 h): 125 µM (≈ 41.8 µg/mL); MIC ([8]; 48 h): 125 µM (≈ 41.8 µg/mL); MIC ([9]; CCM4516, 24 h): 0.24 µM (≈ 0.0803 µg/mL); MIC ([9]; CCM4516, 48 h): 0.24 µM (≈ 0.0803 µg/mL); MIC ([10]; SP.J14365/08, 24 h): 7.81 µM (≈ 2.61 µg/mL); MIC ([10]; SP.J14365/08, 48 h): 15.6 µM (≈ 5.22 µg/mL)
CC1(C)S[C@@H]2[C@H](NC(=O)COc3ccccc3)C(=O)N2[C@H]1C(=O)O [Phen, phenoxymethylpenicillin, reference compound] |  |  |  |  |  |  |  |  |  |  |  |  |  |  |  |  | > 500 µM | > 500 µM | > 500 µM | > 500 µM | MIC ([7]; H6966/08, 24 h): 62.5 µM (≈ 21.9 µg/mL); MIC ([7]; H6966/08, 48 h): 250 µM (≈ 87.6 µg/mL); MIC ([8]; 24 h): 250 µM (≈ 87.6 µg/mL); MIC ([8]; 48 h): 500 µM (≈ 175 µg/mL); MIC ([9]; CCM4516, 24 h): 0.24 µM (≈ 0.0841 µg/mL); MIC ([9]; CCM4516, 48 h): 0.24 µM (≈ 0.0841 µg/mL); MIC ([10]; SP.J14365/08, 24 h): 7.81 µM (≈ 2.74 µg/mL); MIC ([10]; SP.J14365/08, 48 h): 7.81 µM (≈ 2.74 µg/mL)
O=C(Nc1cncc(Cl)n1)c1ccccc1O [Compound 3b] |  |  |  |  |  |  |  |  |  |  |  |  |  |  |  |  |  |  |  |  | M. kans. ATCC 12478 MIC [11]: > 100 mg/L; Mtb H37Rv ATCC 27294 MIC [12]: > 100 mg/L; M. smeg. ATCC 607 MIC [13]: 250 mg/L; M. avium ATCC 15769 MIC [14]: > 100 mg/L
C[C@@H](c1ncncc1F)[C@](O)(Cn1cncn1)c1ccc(F)cc1F [VOR, voriconazole, reference compound] | 125 µM (≈ 43.7 µg/mL) | 250 µM (≈ 87.3 µg/mL) | 0.002 µM (≈ 0.000699 µg/mL) | 0.008 µM (≈ 0.00279 µg/mL) | 0.49 µM (≈ 0.171 µg/mL) | 1.95 µM (≈ 0.681 µg/mL) | 0.24 µM (≈ 0.0838 µg/mL) | 250 µM (≈ 87.3 µg/mL) | 0.98 µM (≈ 0.342 µg/mL) | 7.81 µM (≈ 2.73 µg/mL) | 62.5 µM (≈ 21.8 µg/mL) | 250 µM (≈ 87.3 µg/mL) | 0.061 µM (≈ 0.0213 µg/mL) | 0.12 µM (≈ 0.0419 µg/mL) | 0.49 µM (≈ 0.171 µg/mL) | 1.95 µM (≈ 0.681 µg/mL) |  |  |  |  | 
